Results as given in patent US12433865B2, “Compositions comprising PGI2-receptor agonists and processes for the preparation thereof” (Arena Pharmaceuticals, Inc., priority 2018, dated 2025).

Test: Open-label, fixed sequence single-dose pharmacokinetic study in healthy subjects (Example 7 A)
Format: in vivo, human
Description: A. An open-label, fixed sequence, non-randomized study in two cohorts of healthy male and non-pregnant, non-lactating female subjects was conducted. Two cohorts with twelve subjects in each were enrolled to ensure data in ten evaluable subjects per cohort.
Each subject in Cohort 1 received each of the following regimens, in the fasted state, in a sequential manner over four treatment periods: • Regimen A (0.03 mg immediate-release Compound 1): 1×0.03 mg Compound 1 immediate-release capsule. • Regimen B (0.06 mg modified-release Compound 1): 1×0.06 mg Compound 1 modified-release tablet as disclosed herein. • Regimen C (0.12 mg modified-release Compound 1): 2×0.06 mg Compound 1 modified-release tablets as disclosed herein. • Regimen D (0.18 mg modified-release Compound 1) 3×0.06 mg Compound 1 modified-release tablets as disclosed herein.
Subjects received each regimen in the morning of Day 1, following an overnight fast of a minimum of 8 hours. PK samples were taken from subjects at 72 hours post-dose. There was a minimum washout period of 7 days between each administration of investigational medicinal product (IMP) (i.e., selexipag film-coated tablet(s), Compound 1 immediate-release capsule(s), and/or Compound 1 modified-release tablet(s)).
For Cohort 1, subjects received Regimens […] in a sequential manner at consecutive treatment periods.
Venous blood samples were withdrawn at regular time intervals. Plasma concentration data for Compound 1 and the selexipag parent and active metabolite were analyzed using appropriate non-compartmental techniques to obtain estimates of one or more of the following parameters: • Tlag • Tmax • Cmax • C12 • C24 • AUC(0-last) • AUC(0-inf) • AUC % extrap • lambda-z • T1/2e1 • CL/F • Frel: relative bioavailability of 0.06 mg Compound 1 tablets compared to the reference 0.03 mg Compound 1 capsule Pharmacodynamic Assessments:
One or more of the above pharmacokinetic parameters were determined at one or more of the following time points: pre-dose and (referring to hours after administration): 0.5, 1, 1.5, 2, 3, 4, 5, 6, 8, 10, 12, 16, 20, 24, 36, 48, and 72 hours.

[1] = 0.06-0.18 mg modified-release tablets vs 0.03 mg immediate-release capsule
[2] = single oral dose, fasted healthy subjects

dose-adjusted total exposure (AUC(0-last)) compared to 0.03 mg immediate release capsule (0.18 mg modified-release tablet): similar
relative bioavailability based on individual dose-adjusted Cmax vs immediate-release capsule (0.06, 0.12 and 0.18 mg modified-release tablet): statistically significantly lower
dose-adjusted peak plasma exposure (Cmax/D), geometric mean ratios modified-release vs immediate-release [1]: 28.7-41.2%
dose-adjusted total plasma exposure (AUC/D), geometric mean ratios modified-release vs immediate-release [1]: 63.3-97.9%
relative bioavailability based on individual dose-adjusted AUC(0-last) vs immediate-release capsule (0.06 and 0.12 mg modified-release tablet): statistically significantly lower
half-life (both sexes, human, plasma, oral, modified-release tablets, across all dose levels (0.06, 0.12, 0.18 mg), read-out: geometric mean half-life): 1140 to 1380 min
Tmax (both sexes, human, plasma, single oral administration of 0.06, 0.12 and 0.18 mg modified-release tablets, read-out: median Tmax): 4 to 10 h
plasma concentrations at 24 hours post-dose compared to immediate-release formulation (modified-release tablet formulation): higher
increase of systemic exposure (Cmax and AUC) with dose (oral modified-release tablet formulation): slightly higher than dose-proportional
Cmax, modified-release tablet vs immediate-release capsule [2]: reduced
Tmax, modified-release tablet vs immediate-release capsule [2]: increased
total plasma concentrations, modified-release tablet vs immediate-release capsule [2]: similar
Structure (SMILES): O=C(O)COC[C@H]1CC[C@H](COC(=O)N(c2ccccc2)c2ccc(Cl)cc2)CC1 [Compound 1, 2-(((1r,4r)-4-(((4-chlorophenyl)(phenyl)carbamoyloxy)methyl)cyclohexyl)methoxy)acetic acid]
